The target in one assay is T1, Epac2^fl (Mus musculus, UniProt Q9EQZ6).
T1 sequence (Q9EQZ6 1-993 isoform Q9EQZ6-3): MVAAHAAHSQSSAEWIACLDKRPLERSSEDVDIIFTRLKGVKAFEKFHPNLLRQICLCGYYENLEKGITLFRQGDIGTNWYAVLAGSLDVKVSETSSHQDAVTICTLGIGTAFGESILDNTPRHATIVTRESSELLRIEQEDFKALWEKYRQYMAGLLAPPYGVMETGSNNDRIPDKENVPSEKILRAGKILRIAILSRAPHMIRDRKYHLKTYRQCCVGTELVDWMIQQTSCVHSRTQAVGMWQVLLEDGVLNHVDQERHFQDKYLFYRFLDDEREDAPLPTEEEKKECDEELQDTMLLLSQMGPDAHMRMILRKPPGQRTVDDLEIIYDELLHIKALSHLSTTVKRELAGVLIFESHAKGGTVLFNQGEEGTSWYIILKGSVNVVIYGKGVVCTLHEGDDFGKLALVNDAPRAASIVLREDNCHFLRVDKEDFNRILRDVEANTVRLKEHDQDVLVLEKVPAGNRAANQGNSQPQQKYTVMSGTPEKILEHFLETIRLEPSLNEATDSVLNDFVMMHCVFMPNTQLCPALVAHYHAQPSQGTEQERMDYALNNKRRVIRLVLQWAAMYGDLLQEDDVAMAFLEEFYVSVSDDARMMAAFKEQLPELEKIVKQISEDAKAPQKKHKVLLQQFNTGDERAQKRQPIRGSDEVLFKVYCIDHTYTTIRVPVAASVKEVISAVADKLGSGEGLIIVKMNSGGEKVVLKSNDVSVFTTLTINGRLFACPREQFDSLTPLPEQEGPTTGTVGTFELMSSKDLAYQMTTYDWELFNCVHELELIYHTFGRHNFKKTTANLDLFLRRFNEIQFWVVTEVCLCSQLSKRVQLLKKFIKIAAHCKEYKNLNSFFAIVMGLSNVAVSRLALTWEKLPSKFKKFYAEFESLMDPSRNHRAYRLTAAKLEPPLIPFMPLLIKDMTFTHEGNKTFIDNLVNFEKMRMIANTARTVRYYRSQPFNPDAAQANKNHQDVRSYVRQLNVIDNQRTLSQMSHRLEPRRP
The assay is described as follows: Epac activation assay, full length Epac2. Format: biochemical. Also noted: made in house. Particulars: Epac2^fl; for Rel. kmax: maximal activity relative to cAMP. How it is done: (§1) Murine Epac2 was used as all previous structural studies were performed with it.
(§2) The activity of Epac was determined by a fluorescence assay. […] The fluorescence intensity of Rap1B•mGDP is approximately twice that of free mGDP, and thus, nucleotide exchange can be observed as a decay in fluorescence upon the addition of excess unlabeled GDP.

In the next assay the target is T2, Epac2^Δ280 (Mus musculus, UniProt Q9EQZ6).
T2 construct: made in house
T2 sequence (Q9EQZ6 281-993 isoform Q9EQZ6-3): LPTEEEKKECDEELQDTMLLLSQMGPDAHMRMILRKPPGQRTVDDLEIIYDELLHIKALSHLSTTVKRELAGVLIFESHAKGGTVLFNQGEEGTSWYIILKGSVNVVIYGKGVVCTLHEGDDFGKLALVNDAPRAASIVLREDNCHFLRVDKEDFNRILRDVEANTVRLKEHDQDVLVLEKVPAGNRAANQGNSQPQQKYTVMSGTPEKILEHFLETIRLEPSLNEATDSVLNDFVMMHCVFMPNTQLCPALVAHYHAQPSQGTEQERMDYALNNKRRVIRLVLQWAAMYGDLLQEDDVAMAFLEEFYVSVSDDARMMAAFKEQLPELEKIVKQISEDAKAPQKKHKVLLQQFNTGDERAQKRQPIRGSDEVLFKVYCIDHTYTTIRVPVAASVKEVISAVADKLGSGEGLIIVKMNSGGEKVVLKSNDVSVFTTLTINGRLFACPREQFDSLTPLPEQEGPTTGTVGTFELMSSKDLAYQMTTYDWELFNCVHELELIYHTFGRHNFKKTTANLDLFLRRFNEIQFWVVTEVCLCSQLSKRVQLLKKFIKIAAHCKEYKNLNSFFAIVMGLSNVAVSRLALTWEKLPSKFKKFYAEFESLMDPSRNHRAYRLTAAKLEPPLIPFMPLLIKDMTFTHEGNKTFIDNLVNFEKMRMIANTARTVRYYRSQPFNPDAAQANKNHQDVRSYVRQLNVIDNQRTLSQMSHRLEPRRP
The assay is described as follows: Epac activation assay (Rap1B•mGDP fluorescence nucleotide exchange), Epac2^Δ280. Particulars: Epac2^Δ280; for Rel. kmax: maximal activity relative to cAMP. It counts as biochemical. How it is done: as §1, §2

Assay [1] deals with T3, Epac1 (Homo sapiens, UniProt O95398).
T3 construct: made in house
T3 sequence (O95398 150-881 isoform O95398-3): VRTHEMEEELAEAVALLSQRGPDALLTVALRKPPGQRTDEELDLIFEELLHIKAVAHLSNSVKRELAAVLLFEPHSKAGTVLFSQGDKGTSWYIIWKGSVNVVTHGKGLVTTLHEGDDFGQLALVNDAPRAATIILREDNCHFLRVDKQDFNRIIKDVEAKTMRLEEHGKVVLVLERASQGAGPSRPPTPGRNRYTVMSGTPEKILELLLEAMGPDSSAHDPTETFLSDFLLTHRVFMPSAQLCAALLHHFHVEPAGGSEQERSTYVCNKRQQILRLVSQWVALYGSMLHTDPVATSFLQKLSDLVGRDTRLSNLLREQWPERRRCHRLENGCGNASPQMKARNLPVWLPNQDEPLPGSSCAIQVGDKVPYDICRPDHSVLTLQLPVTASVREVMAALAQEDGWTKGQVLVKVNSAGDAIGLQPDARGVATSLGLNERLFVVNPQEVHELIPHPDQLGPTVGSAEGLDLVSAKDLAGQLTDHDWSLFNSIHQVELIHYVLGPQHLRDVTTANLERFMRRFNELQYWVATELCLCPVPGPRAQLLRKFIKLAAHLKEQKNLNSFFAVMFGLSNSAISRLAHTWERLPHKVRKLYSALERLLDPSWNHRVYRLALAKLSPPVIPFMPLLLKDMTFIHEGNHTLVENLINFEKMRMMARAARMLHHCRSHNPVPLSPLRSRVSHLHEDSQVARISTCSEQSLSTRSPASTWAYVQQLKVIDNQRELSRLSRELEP
The assay can be described thus: Epac activation assay, Epac1. Format: biochemical. Particulars: Epac1; for Rel. kmax: maximal activity relative to cAMP.

The target of assay [2] is T3, Epac1. Further details: method as in PMID 12888551. The conditions noted are these: footnote c, see also ref 13; cited from earlier work.

Where two headings read alike, the source gives them in different places.

The text below walks through data of article PMC4300089, “Structure-Guided Design of Selective Epac1 and Epac2 Agonists” (PLoS Biology, 2015).

The term AC50 denotes the midpoint of the concentration-response curve, whichever way the signal moves.

Turning to `CSc1nc2c(N)ncnc2n1[C@@H]1O[C@@H]2COP(=O)(O)O[C@H]2[C@H]1SC` [D-002, 8,2′-DMeT-cAMP], the results for the AC50 on Epac2^fl, on Epac2^Δ280 and at Epac1 [1] were 110 µM, 2.6 µM and 17 µM, respectively. Further, the values for the Rel. kmax at Epac2^fl, at Epac2^Δ280 and at Epac1 [1] were 2.4, 2.0 and 1.4, respectively.

Turning to `Nc1ncnc2c1nc(Cl)n2[C@@H]1O[C@@H]2COP(=O)(O)O[C@H]2[C@H]1O` [L-001, 8-Cl-cAMP], at Epac2^Δ280, half-maximal activity (AC50) was put at 0.3 µM and the Rel. kmax came out at 0.8. On Epac1 [2], the AC50 was 6.9 µM and the Rel. kmax is given as 0.5^c.

Turning to `Nc1ncnc2c1nc(Br)n2[C@@H]1O[C@@H]2COP(=O)(O)O[C@H]2[C@H]1O` [L-002, 8-Br-cAMP], at Epac2^Δ280, the AC50 amounted to 0.4 µM and the Rel. kmax came out at 0.9. For the same compound, at Epac1 [2], the AC50 was 6.2 µM and the Rel. kmax is listed as 0.5^c.

`CNc1nc2c(N)ncnc2n1[C@@H]1O[C@@H]2COP(=O)(O)O[C@H]2[C@H]1O` [L-005, 8-MeA-cAMP]: the values for the half-maximal activity concentration (AC50) at Epac2^Δ280 and at Epac1 [2] were 0.6 µM and 19 µM, respectively. Moreover, the Rel. kmax at Epac2^Δ280 is given as 3.3; at Epac1 [2] it was 0.5^c.

For `Nc1ncnc2c1nc(N1CCCCC1)n2[C@@H]1O[C@@H]2COP(=O)(O)O[C@H]2[C@H]1O` [L-018, 8-PIP-cAMP], the AC50 on Epac2^Δ280 was 13 µM; at Epac1 [2] it was 130 µM. Further, the results for the Rel. kmax on Epac2^Δ280 and at Epac1 [2] were 3.8 and 0.9^c, respectively.

At Epac2^Δ280, `Nc1ncnc2c1[nH]c(=O)n2C1OC2COP(=O)(O)OC2C1O` [L-021, 8-OH-cAMP] came in with an AC50 of 0.6 µM and a Rel. kmax of 0.4. For the same compound, on Epac1 [2], the AC50 is 26 µM and the Rel. kmax was 0.5^c.

Turning to `Nc1ncnc2c1nc(Br)n2[C@@H]1O[C@@H]2COP(O)(=S)O[C@@H]2C1O` (stereo partly drawn) [S-010, Sp-8-Br-cAMPS], the AC50 was found to be 8 µM on Epac2^fl, 0.4 µM at Epac2^Δ280 and 16 µM on Epac1 [1]. The Rel. kmax is 3.6 at Epac2^fl, 3.5 at Epac2^Δ280 and 1.0 at Epac1 [1].

As for `CO[C@H]1C2OP(O)(=S)OC[C@H]2O[C@H]1n1c(Br)nc2c(N)ncnc21` (stereo partly drawn) [S-014, Sp-8-Br-2′-O-Me-cAMPS], the AC50 at Epac2^fl was more than 80 µM. Further, on Epac2^Δ280, the concentration at half-maximal activity (AC50) turned out to be 13 µM and the Rel. kmax was found to be 2.0.

On to `CNc1nc2c(N)ncnc2n1[C@@H]1O[C@@H]2CO[P@](O)(=S)O[C@H]2[C@H]1O` [S-030, Sp-8-MeA-cAMPS], for which the AC50 came out at 10 µM on Epac2^fl, 0.7 µM on Epac2^Δ280 and 30 µM on Epac1 [1]. The Rel. kmax is 7.7 at Epac2^fl, 8.4 at Epac2^Δ280 and 1.4 at Epac1 [1].

On Epac2^Δ280, `Nc1ncnc2c1nc(Sc1ccc(Cl)cc1)n2[C@@H]1O[C@@H]2COP([O-])(=S)O[C@H]2[C@H]1O.[Na+]` (stereo partly drawn) [S-210, Sp-8-pCPT-cAMPS] yielded an AC50 of 0.13 µM and a Rel. kmax of 0.7. Also, on Epac1 [1], the AC50 amounted to 2.2 µM and the Rel. kmax worked out at 0.5.

Regarding `CO[C@H]1C2OP(O)(=S)OC[C@H]2O[C@H]1n1c(Sc2ccc(Cl)cc2)nc2c(N)ncnc21` (stereo partly drawn) [S-211, Sp-8-pCPT-2′-O-Me-cAMPS], the figures for the AC50 on Epac2^Δ280 and at Epac1 [1] were 1.4 µM and 7.3 µM, respectively. Further, the figures for the Rel. kmax at Epac2^Δ280 and at Epac1 [1] were 0.4 and 1.9, respectively.

For `Nc1ncnc2c1nc(SCc1ccccc1)n2[C@H]1C[C@@H]2O[P@@](O)(=S)OC[C@H]2O1` [S-221, Sp-8-BnT-2′-dcAMPS], at Epac2^Δ280, the AC50 was 10 µM and the Rel. kmax is reported as 1.5. Also, at Epac1 [1], the AC50 was 280 µM and the Rel. kmax is 0.06.

For the compound `Nc1ncnc2c1nc(SCc1ccccc1)n2[C@@H]1O[C@@H]2CO[P@](O)(=S)O[C@H]2[C@H]1F` [S-222, Sp-8-BnT-2′-F-cAMPS], the AC50 is 15 µM at Epac2^fl, 4.3 µM on Epac2^Δ280 and 60 µM at Epac1 [1]. For the same compound, the Rel. kmax at Epac2^fl is recorded as 1.8; at Epac2^Δ280, 4.2; at Epac1 [1], 0.09.

On Epac2^Δ280, `Nc1ncnc2c1nc(SCc1ccccc1Cl)n2[C@@H]1O[C@@H]2CO[P@](O)(=S)O[C@H]2[C@H]1O` [S-270, Sp-8-oCBnT-cAMPS] yielded an AC50 of 0.27 µM and a Rel. kmax of 3.1. Besides, on Epac1 [1], the activity was half-maximal at 16 µM (AC50) and the Rel. kmax is given as 0.2.

Consider `O[C@@H]1[C@@H]2OP(O)(=S)OC[C@H]2O[C@H]1n1cnc2cc(Cl)c(Cl)cc21` (stereo partly drawn) [S-400, Sp-5,6-DCl-cBIMPS], for which the half-maximal activity concentration (AC50) at Epac2^Δ280 worked out at 0.9 µM; at Epac1 [1] it was 14 µM. The values for the Rel. kmax at Epac2^Δ280 and on Epac1 [1] were 0.8 and 1.0, respectively.

For `Nc1ncnc2c1ncn2[C@H]1C[C@@H]2OP(=O)(O)OC[C@H]2O1` [Z-001, 2′-dcAMP], the AC50 at Epac2^Δ280 is 70 µM; on Epac1 [2], more than 1000 µM. Also, the Rel. kmax at Epac2^Δ280 came out at 1.4.

At Epac2^Δ280, `Nc1ncnc2c1ncn2[C@@H]1O[C@@H]2COP(=O)(O)O[C@H]2[C@H]1F` [Z-002, 2′-F-cAMP] registered an AC50 of 25 µM and a Rel. kmax of 1.0. Also, the AC50 at Epac1 [1] is 1500 µM.

Regarding `Nc1ncnc2c1ncn2[C@@H]1O[C@@H]2COP(=O)(O)O[C@H]2[C@H]1N` [Z-003, 2′-NH2-cAMP], at Epac2^Δ280, the AC50 came to 9 µM and the Rel. kmax came to 0.9. For the same compound, on Epac1 [1], the AC50 came to 80 µM and the Rel. kmax was 0.8.

At Epac2^Δ280, `CO[C@H]1C2OP(=O)(O)OC[C@H]2O[C@H]1n1cnc2c(N)ncnc21` (stereo partly drawn) [Z-004, 2′-O-Me-cAMP] showed an AC50 of 32 µM and a Rel. kmax of 1.0. Moreover, the AC50 on Epac1 [2] is more than 100 µM.

`Nc1ncnc2c1ncn2[C@@H]1O[C@@H]2COP(=O)(O)O[C@H]2[C@H]1OCc1ccccc1` [Z-008, 2′-O-Bn-cAMP]: at Epac2^Δ280, the AC50 is 35 µM and the Rel. kmax is reported as 0.4. In addition, on Epac1 [1], the activity was half-maximal at 75 µM (AC50) and the Rel. kmax turned out to be 1.5.
